Data on three compounds can be found in patent US20250127773A1, “MODULATORS OF THE BETA-3 ADRENERGIC RECEPTOR USEFUL FOR THE TREATMENT OR PREVENTION OF HEART FAILURE” (Arena Pharmaceuticals, Inc., priority 2021, published 2025).

T1 sequence (P13945 whole entry): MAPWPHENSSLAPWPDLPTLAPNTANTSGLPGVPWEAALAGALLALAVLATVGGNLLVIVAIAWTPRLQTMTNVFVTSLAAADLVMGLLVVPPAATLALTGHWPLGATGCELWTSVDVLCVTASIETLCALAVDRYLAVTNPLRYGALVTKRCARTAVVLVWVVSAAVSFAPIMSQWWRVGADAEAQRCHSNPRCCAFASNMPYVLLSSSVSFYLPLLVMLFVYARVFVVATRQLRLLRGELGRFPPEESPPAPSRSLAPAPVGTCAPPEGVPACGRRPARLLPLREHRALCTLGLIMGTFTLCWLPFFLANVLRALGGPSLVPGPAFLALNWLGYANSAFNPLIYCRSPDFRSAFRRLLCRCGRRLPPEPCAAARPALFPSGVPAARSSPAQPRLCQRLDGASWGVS

This assay addresses T1, Beta-3 Adrenergic Receptor (Homo sapiens, UniProt P13945).
T1 construct: expressed in transfected cells; host or cells: CHO-K1
In words: HTRF cAMP antagonist assay, IC50 determination. The assay is classed as cell-based. The note with it: CHO-K1 cells stably expressing recombinant receptor; vs isoproterenol at EC90; unit nM. The method, then: HTRF CAMP assays were performed according to manufacturer's instructions (Cisbio, CAMP Dynamic 2 Assay Kit; #62AM4PEJ). CHO-K1 cells stably expressing recombinant receptor were harvested and suspended in warm PBS to make a 300,000 cells/mL stock. This cell suspension was dispensed into 384 well assay plates (PerkinElmer ProxiPlate #6008280) at 5 μL per well (1500 cells/well) along with a CAMP standard curve.
Compounds were dissolved and serially diluted (5-fold) in DMSO to generate a 10-point dose response stock. […] After a brief incubation, 2.5 μL of isoproterenol stock, prepared at a concentration 4 times its EC90 at the receptor of interest, was added to the wells. The EC90 for isoproterenol, a beta-adrenergic agonist, was determined in separate experiments using standard methods to measure agonist potencies.
Following a 1-hour incubation at room temperature, 5 μL of CAMP-D2 Reagent diluted in Lysis Buffer was added to each well followed by 5 μL of Cryptate Reagent. Plates were further incubated at room temperature for 1 hour prior to reading. Time resolved fluorescence measurements were collected on a suitable, HTRF-capable plate reader.
Counts from the plate reader were fit to the CAMP standard curve on the assay plate in order to determine cAMP concentrations in each well, and these values were used to construct dose-response curves to obtain IC50 values.
On to `CCOCCNS(=O)(=O)c1cccc(OCC(O)CNC2COC3(CCN(S(=O)(=O)c4ccc5ccccc5c4)CC3)C2)c1` [Compound B47, NV-(2-ethoxyethyl)-3-((2S)-2-hydroxy-3-(8-(naphthalen-2-ylsulfonyl)-1-oxa-8-azaspiro[4.5]decan-3-ylamino)propoxy)benzenesulfonamide], for which the IC50 is 155 nM.

Consider `C[C@@H](NS(=O)(=O)c1cccc(OC[C@@H](O)CNC2COC3(CCN(S(=O)(=O)c4ccc5ccccc5c4)CC3)C2)c1)C1CC1` (stereo partly drawn) [Compound B93, N—((R)-1-cyclopropylethyl)-3-((2S)-2-hydroxy-3-(8-(naphthalen-2-ylsulfonyl)-1-oxa-8-25 azaspiro[4.5]decan-3-ylamino)propoxy)benzenesulfonamide], for which the IC50 came out at 112 nM.

Consider `CNS(=O)(=O)c1cccc(OCC(O)CNC2COC3(CCN(S(=O)(=O)c4cccc(-c5cnn(C)c5)c4)CC3)C2)c1` [Compound B216, 3-((S)-2-hydroxy-3-((S)-8-(3-(1-methyl-1H-pyrazol-4-yl)phenylsulfonyl)-1-oxa-8-azaspiro[4.5]decan-3-ylamino)propoxy)-N-20 methylbenzenesulfonamide], for which the IC50 came out at 57.7 nM.

For orientation: IC50 means the midpoint of a concentration-inhibition curve.
